The results in this text go back to ChEMBL document CHEMBL1201862, “PubChem BioAssay data set” (2004).

What all share (assay): NCI anticancer screen, dose series, 48 h
For assay [1], the system named is 786-0.
Assay [2] concerns CAKI-1.
The subject of assay [3] is EKVX.
In assay [4] the test system is HCC 2998.
Assay [5] relates to HCT-116.
Assay [6] relates to HL-60.
The test system of assay [7] is Hs-578T.
The subject of assay [8] is MCF7.
Assay [9] has as its system MOLT-4.
Assay [10] deals with Malme-3M.
Assay [11] deals with NCI-H460.
The subject of assay [12] is NCI-H522.
The subject of assay [13] is OVCAR-4.
The test system of assay [14] is OVCAR-8.
Assay [15] deals with PC-3.
In assay [16] the test system is SN12C.
For assay [17], the system named is UACC-62.
Assay [18] relates to SNB-19.

SMILES strings stand for the structures.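 Method: 48-hour compound exposure of cells in 96-well plates, five concentrations, linear interpolation of endpoints. GI50 is the concentration that inhibits growth by half.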 Calls of active or inactive are those of the source. Rule as the data show it: active = GI50 up to about 1.1 µM and inactive = higher.

As for `CC(C)(CO)CNc1nc(N)nc(Cl)c1/C=N/O`, the GI50 in [1] is 36.7 µM (inactive); in assay [2] it was 23.8 µM (inactive); in assay [3], 17.5 µM (inactive); in [4], 71.1 µM (inactive); in assay [5] it was 10.2 µM (inactive); in assay [6] it was 29.8 µM (inactive). In addition, the GI50 in assay [7] is 27 µM (inactive); in assay [8], 23.8 µM (inactive); in assay [9], 17 µM (inactive); in assay [10], 57.4 µM (inactive); in [11] it was 30 µM (inactive); in assay [12] it was 25.8 µM (inactive). Besides, the GI50 was 34 µM (inactive) in [13]; 31.6 µM (inactive) in assay [14]; 49.5 µM (inactive) in [15]; 72.4 µM (inactive) in assay [16]; 31.8 µM (inactive) in [17].

As to `N/C(CSCCSC/C(N)=N/O)=N\O`, the GI50 in [1], in assay [2], in [3], in assay [4], in assay [5] and in assay [6] was > 100 µM (inactive) throughout. The GI50 in [7], in assay [8], in assay [9], in assay [10], in assay [11] and in [12] was > 100 µM (inactive) in each case. Also, the GI50 in assay [13], in assay [15], in assay [16], in assay [18] and in assay [17] was > 100 µM (inactive) in each case.

For the compound `COc1ccc2c3c1OC1C4(CCC5C(C2)N(CC2CC2)CCC351)OCCO4` (stereo not given), the GI50 in [1], in assay [2], in assay [3], in [4], in assay [5] and in [6] was > 100 µM (inactive) in each case. Moreover, the GI50 in [7], in assay [8], in assay [9], in [10], in assay [11] and in assay [12] was > 100 µM (inactive) throughout. Moreover, the GI50 in assay [13], in assay [14], in assay [15], in assay [16], in assay [18] and in [17] was > 100 µM (inactive) each time.

`O=C(CSCC(=O)N/N=C/c1cc(I)cc(I)c1O)N/N=C/c1cc(I)cc(I)c1O`: the GI50 in [1] was 5.83 µM (inactive); in assay [2], 18.3 µM (inactive); in assay [3], 16 µM (inactive); in [4], 12.8 µM (inactive); in assay [5], 9.29 µM (inactive); in [6], 6.18 µM (inactive). Moreover, the GI50 was 6.78 µM (inactive) in assay [7]; 15.1 µM (inactive) in assay [8]; 5.19 µM (inactive) in assay [9]; 18.1 µM (inactive) in assay [10]; 25.6 µM (inactive) in assay [11]; 6.38 µM (inactive) in assay [12]. The GI50 in assay [13] is 47 µM (inactive); in assay [14], 6.34 µM (inactive); in assay [15] it was 32.3 µM (inactive); in assay [16] it was 23.2 µM (inactive); in assay [18], 10.5 µM (inactive); in assay [17], 12.8 µM (inactive).

For the compound `O=C(N/N=C(COc1ccccc1Cl)\N=C\c1ccncc1)c1ccncc1`, the GI50 in [1], in [2], in [3], in assay [4], in assay [5] and in assay [6] was > 100 µM (inactive) in each case. For the same compound, the GI50 in assay [7] is > 100 µM (inactive); in [8], > 100 µM (inactive); in assay [9], 61.1 µM (inactive); in [10], > 100 µM (inactive); in assay [11], > 100 µM (inactive); in [12], > 100 µM (inactive). In addition, the GI50 in assay [13], in assay [14], in assay [15], in assay [16], in assay [18] and in assay [17] was > 100 µM (inactive) in each case.

Turning to `O=C1SC(c2ccc(Cl)cc2)(c2ccc(Cl)cc2)c2ccccc21`, the GI50 was > 100 µM (inactive) in [1]; > 100 µM (inactive) in assay [2]; 86.7 µM (inactive) in assay [3]; 38.3 µM (inactive) in assay [4]; 13.3 µM (inactive) in [5]; 28.2 µM (inactive) in assay [6]. Also, the GI50 is 81.8 µM (inactive) in assay [7]; 48.8 µM (inactive) in assay [8]; 32.7 µM (inactive) in assay [9]; > 100 µM (inactive) in assay [10]; 63.1 µM (inactive) in [11]; 70 µM (inactive) in assay [12]. For the same compound, the GI50 in assay [13] is 33.5 µM (inactive); in assay [14], > 100 µM (inactive); in [15], 40.4 µM (inactive); in [16], > 100 µM (inactive); in [18], > 100 µM (inactive); in [17], 98.4 µM (inactive).

`COCOC1/C=C/CCCC#C[C@H](C)C(=O)CC1` (stereo not given in full): the GI50 in assay [1] was 4.21 µM (inactive); in [2] it was 11.5 µM (inactive); in assay [3] it was 10.4 µM (inactive); in [4] it was 14.6 µM (inactive); in [5], 2.33 µM (inactive); in assay [6], 2.32 µM (inactive). Besides, the GI50 was 15.5 µM (inactive) in assay [7]; 5.55 µM (inactive) in [8]; 2.96 µM (inactive) in assay [9]; 6.68 µM (inactive) in [10]; 8.73 µM (inactive) in assay [11]; 5.7 µM (inactive) in assay [12]. For the same compound, the GI50 was 7.83 µM (inactive) in assay [13]; 14.5 µM (inactive) in assay [14]; 8.69 µM (inactive) in assay [15]; 11.2 µM (inactive) in assay [16]; 17.9 µM (inactive) in [18]; 10 µM (inactive) in assay [17].

With `CCOc1ccc(NCC2CC/C(=C\C=C\c3ccccc3)C2=O)cc1` (stereo not given), the GI50 in assay [1] was 5.25 µM (inactive); in assay [2] it was 12.7 µM (inactive); in assay [3], 37.3 µM (inactive); in assay [4], 31.9 µM (inactive); in [5] it was 6.98 µM (inactive); in assay [6] it was 17.8 µM (inactive). Further, the GI50 is 29 µM (inactive) in assay [7]; 3.18 µM (inactive) in assay [8]; 5.2 µM (inactive) in assay [9]; 22 µM (inactive) in [10]; 32 µM (inactive) in assay [11]; 8.61 µM (inactive) in assay [12]. Moreover, the GI50 is 27.5 µM (inactive) in assay [13]; 16.9 µM (inactive) in [14]; 23.6 µM (inactive) in assay [15]; 16.6 µM (inactive) in assay [16]; 24 µM (inactive) in [18]; 24.4 µM (inactive) in [17].

`CC(=O)O[C@H]1C(=O)[C@@]2(C)[C@H]([C@H](OC(=O)c3ccco3)[C@]3(O)C[C@H](OC(=O)[C@H](O)[C@@H](NC(=O)c4ccccc4)c4ccccc4)C(C)=C1C3(C)C)[C@]1(OC(C)=O)CO[C@@H]1C[C@@H]2O`: the GI50 is 1.16 µM (inactive) in assay [1]; 14.3 µM (inactive) in assay [2]; > 8.79 µM (inactive) in assay [3]; 0.296 µM (active) in assay [4]; 0.059 µM (active) in assay [5]; 0.0227 µM (active) in [6]. Moreover, the GI50 is 0.0608 µM (active) in assay [7]; 0.034 µM (active) in assay [8]; 0.114 µM (active) in assay [9]; 0.119 µM (active) in assay [10]; 0.164 µM (active) in assay [11]; 0.309 µM (active) in assay [12]. Also, the GI50 in assay [13] is > 22.4 µM (inactive); in assay [14], 0.273 µM (active); in assay [15], 0.12 µM (active); in assay [16], 0.308 µM (active); in [18], 0.344 µM (active); in [17] it was 0.277 µM (active).

On to `COc1ccc(-c2ncn(C[Si](C)(C)C)c2-c2ccc(OC)cc2)cc1`, for which the GI50 is 5.15 µM (inactive) in assay [1]; 5.85 µM (inactive) in assay [2]; 3.13 µM (inactive) in [3]; 3.17 µM (inactive) in assay [4]; 2.92 µM (inactive) in assay [5]; 1.72 µM (inactive) in assay [6]. Also, the GI50 was 12.5 µM (inactive) in assay [7]; 8.59 µM (inactive) in assay [8]; 0.863 µM (active) in [9]; 10.4 µM (inactive) in [10]; 3.77 µM (inactive) in assay [11]; 4.28 µM (inactive) in assay [12]. Further, the GI50 was 7.82 µM (inactive) in [13]; 7.06 µM (inactive) in assay [14]; 4.63 µM (inactive) in assay [15]; 11 µM (inactive) in [16]; 7.64 µM (inactive) in assay [18]; 3.2 µM (inactive) in assay [17].

Consider `N#Cc1[nH]c(=S)[nH]c1N`, for which the GI50 in assay [1], in assay [2], in assay [3], in assay [4], in assay [5] and in assay [6] was > 100 µM (inactive) each time. In addition, the GI50 was 2.99 µM (inactive) in [7]; > 100 µM (inactive) in [8]; > 100 µM (inactive) in [10]; > 100 µM (inactive) in assay [11]; > 100 µM (inactive) in [12]; > 100 µM (inactive) in assay [13]. Moreover, the GI50 in [14], in assay [15], in assay [16], in assay [18] and in assay [17] was > 100 µM (inactive) throughout.
